Molecules are shown by their SMILES. Like-named read-outs stand apart in the source and are kept apart here. Square brackets hold non-standard residues; d marks the D form. Peptide text beside a SMILES is read from it. Bip = N[C@@H](Cc1ccc(-c2ccccc2)cc1)C(=O)O Bounds are passed on as bounds.

Experimental findings from paper PMC5874699, “Antimicrobial and Antibiofilm Activity of UP-5, an Ultrashort Antimicrobial Peptide Designed Using Only Arginine and Biphenylalanine” (Pharmaceuticals, 2018) are described below.

One series concerns human erythrocytes. It counts as cell-based. As for the experimental part: Two milliliters of human blood were placed into a 50 mL centrifuge tube and centrifuged (3000× g). The supernatant was discarded, the cell pellet re-suspended in 48 mL of PBS, and centrifuged as above; this step was repeated twice. Finally, 2 mL of cell pellet were re-suspended in a sterile tube containing 48 mL PBS to reach a final concentration of 4% RBC. […] Positive controls were prepared by adding 5 µL of 0.1% (Triton 100X) to 2 mL of 4% RBC suspension and negative controls were prepared by adding 2 mL of 4% RBC suspension only. All preparations were incubated for 60 min at 37 °C. Next, the tubes were gently vortexed and 1 mL of each sample were removed and placed into sterilized eppendorf tubes and then centrifuged (3000× g). Then, 200 µL of each supernatant was placed into a 96 well-plate. Absorbance was measured at λ = 450 nm with the aid of an ELISA reader. The percentage hemolysis was calculated according to the following equation:(2) % Hemolysis=A−AO/AX−AO×100 where A is the optical density at 450 nm (OD450) of the peptide solution, AO is the OD450 of the negative control (0.9% NaCl) and AX is the OD450 of the positive control (0.1% Triton 10X).

Another series concerns S. aureus (ATCC 43300). It is filed as cell-based, Staphylococcus aureus. Conditions: ATCC 43300, 24 h. An excerpt:
(§1) All bacterial susceptibility, biofilm, and synergistic assays of peptides, antibiotics, and peptides-antibiotics combinations used bacterial strains obtained from the American Type Tissue Culture Collection (ATCC, Manassas, VA, USA) that states the mechanism of resistance for each strain according to ATCC number. Gram-positive bacteria were represented by five strains, the wild type strain Staphylococcus aureus (ATCC 29213) and methicillin-resistant S. aureus (MRSA) (ATCC 33591) in addition to clinically isolated strains S. aureus (ATCC BAA-41& 43300) and Enterococcus faecalis (ATCC BAA-2316). The Gram-negative bacteria strains were represented by wild type strains of Escherichia coli (ATCC 25922 & 35218) and Pseudomonas aeruginosa (ATCC 27853) as well as the clinically isolated multidrug-resistant strain P. aeruginosa (ATCC BAA-2114). The bacteria were cultured onto Muller Hinton Agar (Scharlab, S.L, Barcelona, Spain). Mueller Hinton Broth (Oxoid Ltd., Basingstoke, UK) was used to prepare all bacterial suspensions and to dissolve the peptides and the antibiotics. The assay was performed in sterile 96-well polypropylene microtiter plates.
(§2) All bacterial susceptibility assays were conducted according to the microbroth dilution method outlined by the Clinical and Laboratory Standards Institute (CLSI) guidelines.
(§3) Briefly, pre-sterilized MHB was used as a growth medium for organisms obtained from stock media with glycerol. Bacterial cells were grown overnight in MHB and diluted to 10^6 CFU/mL in the same medium prior to use. For peptide, serial concentrations in the range of 0.5–100 μM were prepared. Then, 50 μL of each peptide concentration and 50 µL of diluted bacterial suspension were added to each well of a 96-well microtiter plate. Peptide solutions were prepared by dissolving the peptide in sterile MHB. Then, the plates were incubated overnight in a humidified atmosphere, and at 37 °C. Bacterial growth was determined by measuring the optical density (OD) at λ = 600 nm using an ELISA plate reader (Epoch, BioTek, Winooski, VT, USA) and the minimum inhibitory concentration (MIC) was determined.
(§4) As described in the previous section, the MIC and MBC values of antibiotics employed in this study were determined against subjected bacterial strains via preparing different concentrations of each antibiotic.

The test system of another series is S. aureus (ATCC BAA-41). It counts as cell-based, Staphylococcus aureus. Particulars: ATCC BAA-41, 24 h.
From the text: as §1, §2, §3, §4

Another series concerns Vero cells. It counts as cell-based. Particulars: 24 h. As for the experimental part: Vero cells were seeded at 5 × 10^3 cells per well in flat-bottomed 96-well plates, and the plate was incubated for 18–24 h at 37 °C under 5% CO2 to allow cell attachment on the bottom of the plates. Next day, different concentrations of the peptide were prepared as a gradient using growth medium as the diluent (150, 200, 250, 300, 400, 500, and 600 µM). The plates were incubated for 24 h at 37 °C under 5% CO2. Next, 30 μL (2.5 g/L) MTT solutions were added to all wells and the plates were incubated for 4–6 h. After incubation, the MTT-Peptide solution was removed and a 100 μL of DMSO was added to each well and mixed thoroughly by pipetting to dissolve the Formazan crystals at the bottom of the wells until a clear purple color was achieved. The plates were then placed on an ELx808™ Absorbance Microplate Reader (BioTek, Winooski, VT, USA) and the absorbance was measured at λ = 540 nm.

The subject of series [1] is Enterococcus faecalis (ATCC BAA-2316). It counts as cell-based. Conditions: ATCC BAA-2316, 24 h.
From the text: as §1, §2, §3

For series [2], the system named is Escherichia coli (ATCC 35218). It is filed as cell-based. Particulars: ATCC 35218, 24 h.
From the text: as §1, §2, §3

Series [3] relates to Escherichia coli (ATCC 25922). It is filed as cell-based. Particulars: ATCC 25922, 24 h.
From the text: as §1, §2, §3

For series [4], the system named is Pseudomonas aeruginosa (ATCC 27853). It is filed as cell-based. Particulars: ATCC 27853, 24 h.
From the text: as §1, §2, §3

Take `N=C(N)NCCC[C@H](NC(=O)[C@H](Cc1ccc(-c2ccccc2)cc1)NC(=O)[C@H](CCCNC(=N)N)NC(=O)[C@H](Cc1ccc(-c2ccccc2)cc1)NC(=O)[C@@H](N)CCCNC(=N)N)C(=O)O` [UP-5] (H-R[Bip]R[Bip]R-OH): the “Hemolysis (%)” value was found to be 0.09% in the series on human erythrocytes (40 µM); 1.01% in the series on human erythrocytes (60 µM); 1.04% in the series on human erythrocytes (80 µM); 3.0% in the series with human erythrocytes (150 µM); 3.04% in the series on human erythrocytes (175 µM). The “MBC Value” with S. aureus (ATCC 43300) amounted to 15 µM; in the series on S. aureus (ATCC BAA-41) it was 15 µM; in series [1] it was 70 µM; in series [2], 60 µM; in series [3], 55 µM; in series [4], 65 µM. The “MIC Value” turned out to be 15 µM in the series with S. aureus (ATCC 43300); 15 µM in the series on S. aureus (ATCC BAA-41); 70 µM in series [1]; 60 µM in series [2]; 55 µM in series [3]; 65 µM in series [4]. Besides, the IC50 in the series on Vero cells is over 250 µM.
